Experimental data as given in paper PMC11448925, “Crystal structure of guanosine 5′-monophosphate synthetase from the thermophilic bacterium Thermus thermophilus HB8” (Acta Crystallographica Section F: Structural Biology …, 2024).

Key:
[1] = target: T1, TtGuaA (GMP synthetase, GuaA) (Thermus thermophilus, UniProt Q5SI28); experiment: X-ray crystallography, […] Å; type: binding; conditions: co-crystal with 10 mM XMP, pH 4.4, 20 °C; site between ATPPase and dimerization domains
T1 construct: full length, 503 residues, no tag; pET-11a in E. coli Rosetta(DE3); selenomethionyl crystals for the XMP complex; homodimer
T1 sequence (Q5SI28 1-503): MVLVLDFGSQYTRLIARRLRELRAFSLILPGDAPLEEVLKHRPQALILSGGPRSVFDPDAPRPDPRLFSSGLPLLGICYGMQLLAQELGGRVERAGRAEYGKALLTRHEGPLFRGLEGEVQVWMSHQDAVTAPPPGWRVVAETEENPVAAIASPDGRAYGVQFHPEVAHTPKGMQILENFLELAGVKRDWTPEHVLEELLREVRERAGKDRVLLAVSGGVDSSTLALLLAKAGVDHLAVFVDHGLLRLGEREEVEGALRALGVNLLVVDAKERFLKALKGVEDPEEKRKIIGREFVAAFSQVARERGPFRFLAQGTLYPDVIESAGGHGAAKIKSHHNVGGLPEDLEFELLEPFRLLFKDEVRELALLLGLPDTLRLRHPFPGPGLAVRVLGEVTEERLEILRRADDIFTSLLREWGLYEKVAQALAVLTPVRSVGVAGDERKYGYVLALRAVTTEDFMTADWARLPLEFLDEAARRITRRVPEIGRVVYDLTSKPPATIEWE

[2] = target: the molecule itself; experiment: SEC; size-exclusion chromatography of purified TtGuaA; conditions of the estimate not told

For `O=c1[nH]c(=O)c2ncn([C@@H]3O[C@H](COP(=O)(O)O)[C@@H](O)[C@H]3O)c2[nH]1` [XMP], the “X-ray crystallography, 2.20 Å” value [1] was “In TtGuaA–XMP, one XMP molecule was bound to each monomer”.

B1: Guanosine 5′-monophosphate (GMP) synthetase (GuaA) from Thermus thermophilus HB8 (enzyme, Thermus thermophilus (strain HB8))
chain: T1 sequence (Q5SI28 1-503)
notes: GMP synthetase (GuaA), Thermus thermophilus HB8, gene TTHA1552; The apo structure (2ywb) was solved with native protein; the XMP complex (2ywc) was solved from selenomethionyl protein crystals; No tag is stated for the construct; also called TtGuaA; TTHA1552
With B1 the “stoichiometry N” value [2] was 2.
